According to paper PMC6200594 (ACS infectious diseases, 2018):
Where two headings read alike, the source gives them in different places.

Legend:
[1] = test system: Ac2K-D-Ala-D-Lac; settings: remodeled peptidoglycan precursor; cited from earlier work
[2] = test system: bacterial cell membrane permeability; settings: PI; cited from earlier work
[3] = test system: bacterial cell membrane disruption / depolarization; settings: DiSC3; cited from earlier work
[4] = test system: bacterial cell membrane disruption / depolarization; assay: Membrane depolarization assay; type: cell-based; settings: DiSC3 release

Substance	decrease in binding affinity on replacing ᴅ-Ala-ᴅ-Ala with ᴅ-Ala-ᴅ-Lac [1]	induced cell membrane permeability (in words) [2]	membrane depolarization activity (in words) [3]	membrane depolarization activity (in words) [4]
vancomycin [compound 1]	1,000 fold			
oritavancin		activity in both assays has been observed	observed	
telavancin		activity in both assays has been observed	observed	
CBP-vancomycin [compound 3]				also observed
